Measurements reported in paper PMC3813382 (The Journal of General Physiology, 2013).
Positions count from the first letter of the chain named.

Columns and labels:
L209T Slo2.1 channels = biological target: T1, L209T Slo2.1 channels (Homo sapiens, UniProt Q6UVM3, L209T); assay: Activation of ISlo2.1 by NFA, two-electrode voltage clamp in oocytes; type: cell-based
T1 sequence (Q6UVM3 1-1135 L209T): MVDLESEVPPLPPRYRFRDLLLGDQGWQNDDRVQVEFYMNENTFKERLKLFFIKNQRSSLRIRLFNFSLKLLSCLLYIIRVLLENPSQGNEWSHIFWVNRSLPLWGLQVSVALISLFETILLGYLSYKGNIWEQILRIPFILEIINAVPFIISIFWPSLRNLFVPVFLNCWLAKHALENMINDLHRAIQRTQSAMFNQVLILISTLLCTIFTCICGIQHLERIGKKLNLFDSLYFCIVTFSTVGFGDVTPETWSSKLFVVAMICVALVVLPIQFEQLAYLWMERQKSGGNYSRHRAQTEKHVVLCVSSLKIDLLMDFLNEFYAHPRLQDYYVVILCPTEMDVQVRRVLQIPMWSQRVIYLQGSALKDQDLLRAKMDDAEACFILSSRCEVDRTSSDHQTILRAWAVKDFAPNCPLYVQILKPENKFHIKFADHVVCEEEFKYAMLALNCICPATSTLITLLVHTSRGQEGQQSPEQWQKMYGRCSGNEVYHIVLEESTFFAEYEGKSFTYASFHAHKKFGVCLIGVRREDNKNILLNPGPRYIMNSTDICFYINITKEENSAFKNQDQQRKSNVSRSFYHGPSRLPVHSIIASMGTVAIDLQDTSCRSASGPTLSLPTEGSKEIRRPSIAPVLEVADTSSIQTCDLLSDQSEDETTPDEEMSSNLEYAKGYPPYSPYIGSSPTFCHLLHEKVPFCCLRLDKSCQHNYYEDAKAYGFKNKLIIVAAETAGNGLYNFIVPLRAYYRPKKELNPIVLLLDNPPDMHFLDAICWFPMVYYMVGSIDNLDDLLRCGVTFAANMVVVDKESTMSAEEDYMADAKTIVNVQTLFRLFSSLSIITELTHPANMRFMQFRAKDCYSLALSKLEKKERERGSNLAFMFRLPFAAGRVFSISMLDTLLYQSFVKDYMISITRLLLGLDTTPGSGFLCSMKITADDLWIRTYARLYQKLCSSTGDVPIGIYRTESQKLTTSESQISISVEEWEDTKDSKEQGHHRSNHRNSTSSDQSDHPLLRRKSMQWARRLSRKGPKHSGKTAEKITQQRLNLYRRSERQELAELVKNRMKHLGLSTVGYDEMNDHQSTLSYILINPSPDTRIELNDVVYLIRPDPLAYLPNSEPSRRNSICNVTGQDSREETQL

WT Slo2.1 channels = biological target: T2, WT Slo2.1 channels (Homo sapiens, UniProt Q6UVM3); settings: 1 mM NFA; ref Dai et al., 2010; cited from earlier work
T2 sequence (Q6UVM3 1-1135): T1 sequence (Q6UVM3 1-1135 L209T) with T209L

Compound: O=C(O)c1cccnc1Nc1cccc(C(F)(F)F)c1 [NFA, niflumic acid]
- EC50 (L209T Slo2.1 channels): 106 µM
- Hill coefficient nH of NFA activation (L209T Slo2.1 channels; L209T): 1.39 ± 0.12
- NFA sensitivity of L209T relative to WT Slo2.1 (L209T Slo2.1 channels; L209T vs WT): 20 fold
- effective valence z (WT Slo2.1 channels): 0.48 e
- midpoint of voltage dependence of channel activation (WT Slo2.1 channels): +95 mV
